The source of these data is patent EP2510787A1, “Propenoates as fungicides” (Bayer CropScience AG, priority 2011, dated 2012).

The nature of series [1]: logP measurement by HPLC on reversed phase columns (EEC directive 79/831 Annex V.A8). Format: physicochemical. To be noted: pH 2.7, pH 2,7 with 0,1 % formic acid in water and acetonitrile, linear gradient 10 % to 95 % acetonitrile.
The test system of a further series is Plasmopara viticola. Briefly: Plasmopara test (grapevines) / preventive. Format: in vivo. The conditions noted are these: preventive spray, 100 ppm of active ingredient, evaluated 6 days after the inoculation, 100 % = no disease. How it is done: Plasmopara test (grapevines) / preventive
To produce a suitable preparation of active compound, 1 part by weight of active compound is mixed with the stated amounts of solvent and emulsifier, and the concentrate is diluted with water to the desired concentration.
To test for preventive activity, young plants are sprayed with the preparation of active compound at the stated rate of application. After the spray coating has dried on, the plants are inoculated with an aqueous spore suspension of Plasmopara viticola and then remain for 1 day in an incubation cabinet at approximately 20°C and a relative atmospheric humidity of 100 %. The plant is subsequently placed for 4 days in a greenhouse at approximately 21°C and a relative atmospheric humidity of approximately 90 %. The plants are then misted and placed for 1 day in an incubation cabinet.
The test is evaluated 6 days after the inoculation. 0 % means an efficacy which corresponds to that of the untreated control, while an efficacy of 100 % means that no disease is observed.

`CCOC(=O)C(C#N)=C(OC1CCCCC1C)c1cccnc1Cl` (centres unmarked) [Example 21] had a chromatographic logP in series [1] of 3.74. The compound `CCCC(C)SC(=C(C#N)C(=O)OCC)c1cccnc1Cl` (centres unmarked) [Example 25] yielded a chromatographic logP in series [1] of 3.78. The chromatographic logP values of the last two compounds are within 0.2 log units of each other. Same read-out and setting: as for `CCOC(=O)C(C#N)=C(OC(C)c1ccccn1)c1cccnc1Cl` (centres unmarked) [Example 23], the figure is 2.39; as for `CCOC(=O)C(C#N)=C(OC(C)C(C)C)c1cn(C)nc1C(F)F` (centres unmarked) [Example 12], 2.98.

Regarding `C#CCC(C)OC(=C(C#N)C(=O)OCC)c1cccnc1Cl` (centres unmarked) [Example 10], the chromatographic logP in series [1] amounted to 2.61. On the same count and under the same terms, the result for `CCOC(=O)C(C#N)=C(OC(C)c1ccc(Cl)nc1)c1cccnc1Cl` (centres unmarked) [Example 11] reads 2.9; that for `CCOC(=O)C(C#N)=C(SC(C)C(C)C)c1scnc1Cl` (centres unmarked) [Example 22], 3.79. `CCOC(=O)C(C#N)=C(SC(C)C(C)C)c1ccnn1C(F)F` (centres unmarked) [Example 6] came in with a chromatographic logP in series [1] of 3.59. `CCOC(=O)C(C#N)=C(OC(C)C1=NOCCO1)c1cccnc1Cl` (centres unmarked) [Example 9]: the chromatographic logP in series [1] was 2.2. In turn, `CCOC(=O)C(C#N)=C(OC(C)C(C)C)c1ccnn1C(F)F` (centres unmarked) [Example 15] returned a chromatographic logP in series [1] of 3.25. The compound `CCOC(=O)C(C#N)=C(SC(C)C(C)C)c1cn(C)nc1C(F)F` (centres unmarked) [Example 19] displayed a chromatographic logP in series [1] of 3.3. Besides, the Efficacy in % in the series with Plasmopara viticola was 92%. Consider `CCOC(=O)C(C#N)=C(OC(C)CC(C)(C)C)c1cccnc1Cl` (centres unmarked) [Example 4], for which the chromatographic logP in series [1] was found to be 3.92. Same read-out and setting: the result for `CCOC(=O)C(C#N)=C(OC(C)C(C)(C)C)c1cccnc1Cl` (centres unmarked) [Example 5] reads 3.57; that for `CCOC(=O)C(C#N)=C(OC(C)C(C)C)c1scnc1Cl` (centres unmarked) [Example 16], 3.37. `CCOC(=O)C(C#N)=C(SC(C)c1ccccn1)c1cccnc1Cl` (centres unmarked) [Example 17]: the chromatographic logP in series [1] came out at 2.51.

`CCOC(=O)C(C#N)=C(O[C@H](C)C(=O)OCC)c1cccnc1Cl` [Example 13] had a chromatographic logP in series [1] of 2.71. Turning to `CCOC(=O)C(C#N)=C(SC(C)CC)c1cn(C)nc1C(F)F` (centres unmarked) [Example 3], the chromatographic logP in series [1] was determined as 3.11. With `CCOC(=O)C(C#N)=C(OC1(C(=O)OCC)CC1)c1cccnc1Cl` [Example 24], the chromatographic logP in series [1] amounted to 2.9. The same measure, in the same setting: as for `CCOC(=O)C(C#N)=C(OC(C)C(CC)CC)c1cccnc1Cl` (centres unmarked) [Example 2], the figure is 3.96; as for `CCOC(=O)C(C#N)=C(O[C@@H](C)C(=O)OC)c1cccnc1Cl` [Example 20], 2.4. Turning to `CCOC(=O)C(C#N)=C(SC(C)C(C)C)c1cccnc1Cl` (centres unmarked) [Example 1], the chromatographic logP in series [1] was 3.8. Also, the Efficacy in % with Plasmopara viticola came to 88%. Consider `CCOC(=O)C(C#N)=C(OC(C)C=C(Cl)Cl)c1cccnc1Cl` (centres unmarked) [Example 26], for which the chromatographic logP in series [1] stood at 3.33. `CCOC(=O)C(C#N)=C(OC(C)C(C)C)c1cccnc1Cl` (centres unmarked) [Example 7]: the chromatographic logP in series [1] came out at 3.27. On the same count and under the same terms, the result for `CCOC(=O)C(C#N)=C(OC(C)COC)c1cccnc1Cl` (centres unmarked) [Example 8] reads 2.44.

The chromatographic logP is lipophilicity estimated from chromatographic retention. Read a low chromatographic logP as lower lipophilicity.
